Results as given in PubChem BioAssay AID651861 (The Scripps Research Institute Molecular Screening Center, 2012).

Legend:
Experiment in all cases: binding mode on PAD1, PAD2, PAD3, biochemical, colorimetric, substrate dialysis, late-stage follow-up (AID 651861); call rule not given here
[1] = biological target: Protein-arginine deiminase type-1 (Homo sapiens) (UniProt Q9ULC6); conditions: recombinant PAD1-3, post-dialysis BAEE citrulline colorimetric; PAD1; at 100 µM; active compounds read low
[2] = biological target: Protein-arginine deiminase type-3 (Homo sapiens) (UniProt Q9ULW8); conditions: recombinant PAD1-3, post-dialysis BAEE citrulline colorimetric; PAD3; at 100 µM; active compounds read low
[3] = biological target: Protein-arginine deiminase type-2 (Homo sapiens) (UniProt Q9Y2J8); conditions: recombinant PAD1-3, post-dialysis BAEE citrulline colorimetric; PAD2; at 100 µM; active compounds read low

Measured: residual activity after dialysis

Chain of Protein-arginine deiminase type-3 (Homo sapiens) (Q9ULW8 whole entry, looked up): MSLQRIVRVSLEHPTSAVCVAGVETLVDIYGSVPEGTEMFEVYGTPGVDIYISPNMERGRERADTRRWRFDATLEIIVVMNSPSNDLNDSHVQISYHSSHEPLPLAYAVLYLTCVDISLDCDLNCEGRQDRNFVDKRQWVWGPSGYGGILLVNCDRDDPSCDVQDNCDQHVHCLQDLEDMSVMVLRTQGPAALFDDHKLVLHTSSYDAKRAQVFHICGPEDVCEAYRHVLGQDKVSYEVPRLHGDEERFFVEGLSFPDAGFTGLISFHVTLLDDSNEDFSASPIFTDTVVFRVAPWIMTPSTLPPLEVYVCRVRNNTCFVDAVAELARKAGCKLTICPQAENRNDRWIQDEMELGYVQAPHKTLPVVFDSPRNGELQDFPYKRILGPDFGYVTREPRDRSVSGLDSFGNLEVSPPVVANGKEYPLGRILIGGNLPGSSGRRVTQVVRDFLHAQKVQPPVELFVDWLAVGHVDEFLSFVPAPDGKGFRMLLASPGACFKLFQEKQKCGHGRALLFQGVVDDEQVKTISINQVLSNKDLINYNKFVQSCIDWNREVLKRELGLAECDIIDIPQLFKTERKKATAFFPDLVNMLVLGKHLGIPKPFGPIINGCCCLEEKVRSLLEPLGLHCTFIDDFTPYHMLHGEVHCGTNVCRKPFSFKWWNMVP
Chain of Protein-arginine deiminase type-1 (Homo sapiens) (Q9ULC6 whole entry, looked up): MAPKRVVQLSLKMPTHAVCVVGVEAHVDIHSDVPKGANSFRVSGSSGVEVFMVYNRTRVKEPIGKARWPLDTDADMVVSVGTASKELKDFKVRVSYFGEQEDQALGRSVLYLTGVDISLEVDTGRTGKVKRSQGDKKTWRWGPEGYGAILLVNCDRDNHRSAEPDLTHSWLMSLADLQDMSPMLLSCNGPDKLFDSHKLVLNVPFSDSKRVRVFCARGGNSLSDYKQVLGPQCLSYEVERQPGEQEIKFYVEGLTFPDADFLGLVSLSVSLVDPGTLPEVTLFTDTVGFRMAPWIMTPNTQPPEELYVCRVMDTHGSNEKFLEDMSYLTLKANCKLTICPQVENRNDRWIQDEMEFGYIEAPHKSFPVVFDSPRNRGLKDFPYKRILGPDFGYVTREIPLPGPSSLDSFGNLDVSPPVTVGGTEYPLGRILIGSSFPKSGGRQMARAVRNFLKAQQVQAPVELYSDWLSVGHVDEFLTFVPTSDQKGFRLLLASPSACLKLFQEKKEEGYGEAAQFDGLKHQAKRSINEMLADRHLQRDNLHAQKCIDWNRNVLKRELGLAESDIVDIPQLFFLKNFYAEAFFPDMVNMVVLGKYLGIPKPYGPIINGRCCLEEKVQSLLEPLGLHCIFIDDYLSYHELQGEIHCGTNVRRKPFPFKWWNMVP
Chain of Protein-arginine deiminase type-2 (Homo sapiens) (Q9Y2J8 whole entry, looked up): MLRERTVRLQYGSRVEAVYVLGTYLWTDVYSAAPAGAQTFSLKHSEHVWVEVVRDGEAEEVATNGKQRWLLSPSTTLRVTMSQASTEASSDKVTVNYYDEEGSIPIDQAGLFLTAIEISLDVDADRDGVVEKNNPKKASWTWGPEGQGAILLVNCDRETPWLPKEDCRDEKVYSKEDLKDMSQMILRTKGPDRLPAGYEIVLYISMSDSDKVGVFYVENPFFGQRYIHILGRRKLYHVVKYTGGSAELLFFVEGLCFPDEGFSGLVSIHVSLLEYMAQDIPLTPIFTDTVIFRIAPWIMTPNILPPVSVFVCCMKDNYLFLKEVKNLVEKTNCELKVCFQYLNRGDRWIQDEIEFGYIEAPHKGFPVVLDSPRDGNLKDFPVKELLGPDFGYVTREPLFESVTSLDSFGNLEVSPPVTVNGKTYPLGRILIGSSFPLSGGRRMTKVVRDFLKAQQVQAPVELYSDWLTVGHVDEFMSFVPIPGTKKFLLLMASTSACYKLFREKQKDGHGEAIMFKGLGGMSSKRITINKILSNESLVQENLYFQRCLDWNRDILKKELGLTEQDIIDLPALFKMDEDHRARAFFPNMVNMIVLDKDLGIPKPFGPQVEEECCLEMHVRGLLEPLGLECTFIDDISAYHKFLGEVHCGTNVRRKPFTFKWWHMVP

NC1=CC(=O)c2ccc(-c3cccc(C(=O)O)n3)nc2C1=O
active: [1] 10.2% | [2] 1.2% | [3] 5.3%
